We go through five compounds from patent publication US10927146B2, “Peptidyl ketoamides as inhibitors of rhomboid proteases” (priority 2017, dated 2021).

The structures appear in SMILES notation. Entries after “also recorded” stand apart in the source; their conditions may differ.

Experiment [1] concerns the target model rhomboid protease GlpG (Escherichia coli, UniProt P09391). Nature of the experiment: In vitro inhibition of rhomboid protease GlpG (IC50 and Ki, as described in Ticha et al., 2017). Format: biochemical, E. coli. The settings on record: for Ki: read-out: Ki Range. The text has this: The in vivo activity of the compounds against GlpG according to the invention is in the low nanomolar range (FIG. 1), which is up to three orders of magnitude better than any other currently used rhomboid inhibitors. The co-crystal structures of these compounds with rhomboid protease (FIG. 2) show their mode of binding into the active site of rhomboid. Without wishing to be bound by such a theory, it appears that the ketoamide warhead covalently bonds to the catalytic serine, and extensively hydrogen bonds throughout the active site. The tail at the ketoamide nitrogen interacts with the S2′ pocket of rhomboid, engaging in a number of van der Waals contacts.

In experiment [2] the test system is Plasmodium falciparum rhomboid 4 (PfROM4). Kind of experiment: PfROM4 cell culture assay: shedding of EBA175 in transfected HEK293ET cells. Format: cell-based. The settings on record: HEK293ET cells transfected with PfROM4 and substrate EBA175; approximate, FIG. 3. An excerpt: (A) HEK293ET cells were transfected with plasmids encoding PfROM4 and its substrate EBA175, and the shedding of EBA175 by PfROM4 into the medium under various concentrations of Compound 16 was quantitated by near-infrared fluorescence detected Western blotting. (B) Dose-response analysis of PfROM4 inhibition by Compound 16.

Chain of model rhomboid protease GlpG (P09391 whole entry): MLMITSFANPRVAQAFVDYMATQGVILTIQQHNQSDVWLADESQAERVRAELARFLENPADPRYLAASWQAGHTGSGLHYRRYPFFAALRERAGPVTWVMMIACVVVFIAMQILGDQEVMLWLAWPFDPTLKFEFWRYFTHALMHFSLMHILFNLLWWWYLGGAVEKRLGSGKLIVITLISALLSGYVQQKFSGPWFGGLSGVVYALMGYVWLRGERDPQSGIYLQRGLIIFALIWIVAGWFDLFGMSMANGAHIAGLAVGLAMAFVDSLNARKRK

In the case of `CC(=O)C(=O)[C@H](CCCNC(=N)N)NC(=O)[C@@H](NC(=O)[C@H](CCCNC(=N)N)NC(=O)[C@H](Cc1cnc[nH]1)NN[C@@H](C)C(=O)C(=O)NCCc1ccccc1)C(C)C` [Compound 9], the Ki in experiment [1] lay in the range of 10 to 100 nM.
As to `CC(=O)C(=O)[C@H](CCCNC(=N)N)NC(=O)[C@@H](NC(=O)[C@H](CCCNC(=N)N)NC(=O)[C@H](Cc1cnc[nH]1)NN[C@@H](C)C(=O)C(=O)NCc1cc(C)ccc1C)C(C)C` [Compound 10], in experiment [1], the Ki is 10 to 100 nM.
The same measure, in the same setting: the value for `CC(=O)C(=O)[C@H](CCCNC(=N)N)NC(=O)[C@@H](NC(=O)[C@H](CCCNC(=N)N)NC(=O)[C@H](Cc1cnc[nH]1)NN[C@@H](C)C(=O)C(=O)NCCCCc1ccccc1)C(C)C` [Compound 11] was 10 to 100 nM.
Regarding `CC(=O)C(=O)[C@@H](NC(=O)[C@H](CCCNC(=N)N)NC(=O)[C@H](Cc1cnc[nH]1)NN[C@@H](C)C(=O)C(=O)NCCc1ccccc1)C(C)C` [Compound 12], half-maximal inhibition in experiment [1] (IC50) was put at 550 nM.
For `CC(=O)C(=O)[C@H](CCCNC(=N)N)NC(=O)[C@@H](NC(=O)[C@H](Cc1c[nH]c2ccccc12)NC(=O)[C@H](Cc1cnc[nH]1)NN[C@@H](C)C(=O)C(=O)NCCCCc1ccccc1)C(C)C` [Compound 16], the “IC50 of PfROM4 inhibition” value in experiment [2] is listed as “micro- to submicromolar range; also recorded: micromolar to submicromolar concentrations”.

The Ki is the equilibrium dissociation constant of an inhibitor or competing ligand from its target. For orientation: IC50 means the concentration needed to halve the response being measured.
